Data reported in publication PMC6445123 (Scientific Reports, 2019).

Experiments:
[1] = biological target: T1, recombinant active Casp6 (Casp6-WT) (Homo sapiens, UniProt P55212, INS179NQTEKLDTNITEVD); assay: Fluorescence-based Ac-VEID-AFC cleavage assay (Casp6 activity, IC50 determination); assay type: biochemical; details: 10 µM Ac-VEID-AFC; for % Inhibition with 100 µM compound (fluorescence assay): 20 nM Casp6, relative to 1% DMSO control; for IC50: fluorescence assay, 20 nM Casp6 active sites, read-out: IC50
T1 construct: generating mainly large subunit with a linker (LS-L), small subunit (SS), and a minor amount of large subunit (LS); His (C); made in house; host or cells: E. coli BL21(DE3)pLysS
T1 sequence (P55212 24-193 limits assumed): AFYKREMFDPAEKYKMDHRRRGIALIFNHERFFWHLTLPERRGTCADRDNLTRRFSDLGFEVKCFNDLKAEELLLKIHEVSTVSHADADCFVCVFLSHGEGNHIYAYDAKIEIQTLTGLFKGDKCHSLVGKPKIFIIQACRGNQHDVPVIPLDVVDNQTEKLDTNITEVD
T1 sequence (P55212 194-293 limits assumed): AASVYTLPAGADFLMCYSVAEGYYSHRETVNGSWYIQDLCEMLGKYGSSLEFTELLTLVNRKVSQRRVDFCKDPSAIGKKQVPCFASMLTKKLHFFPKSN
Experimental: (§1) To assess the potency of in silico hits, a fluorescence-based Ac-VEID-AFC cleavage assay was used to measure recombinant active Casp6 reaction rate in the absence or presence of 100 µM concentration of compounds. A 30% inhibition cut off was arbitrarily chosen for further investigation of putative inhibitors. […] AFC signal interference by compound intrinsic fluorescence was ruled out (Fig. S4). Casp6 inhibition was confirmed for seven compounds (C7, C13, C14, S2, S10, S11 and S13) using a colorimetric Ac-VEID-pNA cleavage assay (Table 2, Fig. S3).
(§2) Casp6 active sites were quantified using zVAD-FMK (N-benzyloxycarbonyl-Val-Ala-Asp-(O-methyl)-fluoromethylketone, MP Biomedicals, Santa Ana, CA, USA)[51],[64]. Casp6 activity was measured in Stennicke’s buffer (SB: 20 mM piperazine-N,N′-bis-(2-ethanesulfonic acid) pH 7.2, 100 mM NaCl, 10 mM DTT, 1 mM EDTA, 0.1% 3-[(3-cholamidopropyl)-dimethylammonio]-2-hydroxy-1-propanesulfonic acid, 10% sucrose)[65] using 40 µM Ac-VEID-AFC (Ac-Val-Glu-Ile-Asp-7-Amino-4-trifluoromethylcoumarin, Enzo Life Sciences, Farmingdale, NY, USA)[64] and 10-250 nM active site titrated Casp6. Reactions were initiated by Ac-VEID-AFC addition and followed for 20 min at 37 °C in a black clear bottom 96-well microplate (Costar, Corning, NY, USA) in Synergy H4 Hybrid instrument (BioTek, Winooski, VT, USA) with excitation/emission at 380/505 nm. Released AFC was calculated from AFC standard curve (0-25 µM). Casp6 VEIDase activity (released pmol AFC/min) was calculated from the initial linear reaction part. Ac-VEID-AFC hydrolysis initial velocities were measured with 10 nM active-site titrated Casp6 and […] Ac-VEID-AFC. Initial velocities v versus substrate concentration [S] were fit to a rectangular hyperbola using Michaelis-Menten equation in GraphPad Prism 5 (GraphPad Software, La Jolla, CA, USA).
(§3) In fluorescence-based Casp6 activity assay, 10 µM Ac-VEID-AFC was added to 20 nM Casp6 in SB with 100 μM compound and 1% dimethyl sulfoxide (DMSO), and reaction rate was measured for 20 min at 37 °C as above. Compound potency was calculated by normalising Ac-VEID-AFC cleavage rate to 1% DMSO control. In colorimetric Casp6 activity assay, 200 µM Ac-VEID-pNA (N-acetyl-Val-Glu-Ile-Asp-p-nitroanilide, Enzo Life Sciences) was added to 200 nM Casp6 in SB with 100 μM compound, and Ac-VEID-pNA cleavage rate was measured at 37 °C for 30 min in clear 96-well plate (Sartstedt, Nümbrecht, Germany) using Synergy H4 plate reader at 405 nm. Absorbance was converted to the released pNA amount based on a standard curve of 0–250 µM pNA. Cleavage rates were calculated from the linear assay phase and were normalised to 1% DMSO control. In Casp6-C163A cleavage assay, 0.5 ng/µl Casp6-WT was preincubated with 100 µM inhibitor, 5 µM Q-VD-OPh or 1% DMSO in SB (30 min, RT), followed by transfer on ice, addition of 0.5 µg/µl Casp6-C163A, and incubation (37 °C, 5, 10 and 15 min). Reactions were stopped by adding SDS-PAGE sample buffer (62.5 mM Tris pH 6.8, 2% SDS, 0.1 M DTT, 0.01% Bromphenol Blue, 10% glycerol) and heating (5 min, 95 °C). Samples (2 µl) were analysed on 15% SDS-PAGE gels, proteins were stained with Coomassie blue, and gels were de-stained with 10% acetic acid. The intensities of protein bands were quantified from scanned gels using ImageJ. The band intensity of Casp6-C163A without a prodomain was plotted against the time and the Casp6-C163A cleavage rates were calculated from the slopes of linear plots. The % activity of Casp6-WT in the presence of inhibitors was calculated relative to DMSO control.
IC50 values were determined against 20 nM Casp6 active sites in fluorescence-based Casp6 activity assay with 10 µM Ac-VEID-AFC and 1 nM-500 µM inhibitor. IC50 was calculated with GraphPad Prism 5 by a nonlinear regression fit for log inhibitor vs relative Casp6 activity (% DMSO control) using a Hill slope of – 1, and top and bottom constraints of 100 and 0, respectively.

recombinant active Casp6 = biological target: T2, recombinant active Casp6 (Homo sapiens, UniProt P55212, INS179NQTEKLDTNITEVD); assay: Colorimetric Ac-VEID-pNA cleavage assay; assay type: biochemical; details: 200 µM Ac-VEID-pNA, 200 nM Casp6
T2 construct: generating mainly large subunit with a linker (LS-L), small subunit (SS), and a minor amount of large subunit (LS); His (C); made in house; host or cells: E. coli BL21(DE3)pLysS
T2 sequence (P55212 24-193 limits assumed): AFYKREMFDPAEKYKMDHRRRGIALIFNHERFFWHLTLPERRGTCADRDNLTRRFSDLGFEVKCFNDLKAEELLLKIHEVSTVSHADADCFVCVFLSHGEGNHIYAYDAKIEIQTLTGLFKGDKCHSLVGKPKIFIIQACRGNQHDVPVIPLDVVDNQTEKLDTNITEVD
T2 sequence (P55212 194-293 limits assumed): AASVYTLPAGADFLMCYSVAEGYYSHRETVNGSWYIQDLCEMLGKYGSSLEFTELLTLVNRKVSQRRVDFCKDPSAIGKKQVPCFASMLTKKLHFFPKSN
Experimental: as §1, §3

[2] = Ac-VEID-AFC hydrolysis kinetics of recombinant Casp6 variants (Michaelis-Menten); assay type: biochemical, human; details: Ac-VEID-AFC hydrolysis, mean ± SD
From the text: In this study, we investigated how naturally occurring rare missense variants of human CASP6 affect Casp6 activity and structure. […] A34, E35, A109, and T182 are not conserved in 12 human caspases and in Casp6 from different species (Fig. 1a,b). Recombinant Casp6-WT and the four variants were expressed in E. coli, purified, and active site titrated (Fig. S2) for functional analyses. Like Casp6-WT, Casp6 variants, underwent complete self-processing at TETD23, and TEVD193 sites, and slight self-cleavage at the DVVD179 site, generating mainly large subunit with a linker (LS-L), small subunit (SS), and a minor amount of large subunit (LS) (Fig. 1c,d).
as §2

[3] = biological target: the molecule itself; assay: crystal structure; apo, fully processed Casp6 variant; crystals from 100 mM sodium acetate pH 4.6, 2 M sodium chloride, hanging drop vapour diffusion at 22 °C
[4] = biological target: T3, Casp6-E35K large subunit with linker (LS-L) (human, UniProt P55212 24-193, E35K); assay: as above; details: both partners purified
T3 construct: human Caspase-6, large subunit with linker (LS-L) left after complete self-processing at TETD23 and TEVD193; a minor amount is also cut at DVVD179 (LS); rare natural SNP variant E35K; source: E. coli BL21(DE3)pLysS, self-processed from full-length Casp6-E35K, purified
T3 sequence (looked up): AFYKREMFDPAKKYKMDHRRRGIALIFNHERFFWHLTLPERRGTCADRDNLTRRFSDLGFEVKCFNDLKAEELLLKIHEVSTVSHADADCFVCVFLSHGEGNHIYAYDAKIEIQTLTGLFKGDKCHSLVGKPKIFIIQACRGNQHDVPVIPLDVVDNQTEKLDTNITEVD

Molecule | % Inhibition with 100 µM compound (fluorescence assay) [1] [%] | IC50 [1] [µM] | % Inhibition with 100 µM compound (colorimetric assay) (recombinant active Casp6) [%] | Km [2] [µM] | kcat [2] [s⁻¹] | also measured
Cc1nn(-c2ccccc2)c2c1C(c1cccc(OCc3ccccc3)c1)C(C#N)=C(N)O2 (centres unmarked) [Compound S13] | 33.8 ± 12.1 | 159 ± 27.7 | 41.9 ± 8.2 | – | – | –
Nc1nc2c(s1)C(c1ccc(OCc3cccc(F)c3)cc1)CC(=O)N2 (centres unmarked) [Compound S11] | 30.0 ± 6.0 | 289 ± 60.9 | 56.3 ± 2.3 | – | – | –
O=C(Cn1cc(/C=C2/C(=O)NC(=O)N(Cc3ccco3)C2=O)c2ccccc21)NCC1CCCO1 (centres unmarked) [Compound S10] | 59.7 ± 3.8 | 30.2 ± 6.8 | 42.6 ± 3.4 | – | – | –
Casp6-T182S: recombinant rare natural human Casp6 missense variant T182S (protein, UniProt P55212 1-293, looked up, variant T182S) MSSASGLRRGHPAGGEENMTETDAFYKREMFDPAEKYKMDHRRRGIALIFNHERFFWHLTLPERRGTCADRDNLTRRFSDLGFEVKCFNDLKAEELLLKIHEVSTVSHADADCFVCVFLSHGEGNHIYAYDAKIEIQTLTGLFKGDKCHSLVGKPKIFIIQACRGNQHDVPVIPLDVVDNQSEKLDTNITEVDAASVYTLPAGADFLMCYSVAEGYYSHRETVNGSWYIQDLCEMLGKYGSSLEFTELLTLVNRKVSQRRVDFCKDPSAIGKKQVPCFASMLTKKLHFFPKSN | – | – | – | 33.3 ± 1.2 | 2.42 ± 0.12 | –
Casp6-K284A: Casp6 K284A alanine mutant from full-length construct, partially self-processed (protein, UniProt P55212 1-293, looked up, variant K284A, full-length, Casp6 K284A alanine mutant from full-length construct, partially self-processed) MSSASGLRRGHPAGGEENMTETDAFYKREMFDPAEKYKMDHRRRGIALIFNHERFFWHLTLPERRGTCADRDNLTRRFSDLGFEVKCFNDLKAEELLLKIHEVSTVSHADADCFVCVFLSHGEGNHIYAYDAKIEIQTLTGLFKGDKCHSLVGKPKIFIIQACRGNQHDVPVIPLDVVDNQTEKLDTNITEVDAASVYTLPAGADFLMCYSVAEGYYSHRETVNGSWYIQDLCEMLGKYGSSLEFTELLTLVNRKVSQRRVDFCKDPSAIGKKQVPCFASMLTAKLHFFPKSN | – | – | – | 32.6 ± 10.8 | 2.0 ± 1.5 | –
Casp6-E35K, fully processed (mature, apo) (complex, human, human Caspase-6, large subunit with linker (LS-L) left after complete self-processing at TETD23 and TEVD193; a minor amount is also cut at DVVD179 (LS); rare natural SNP variant E35K; human Caspase-6, small subunit (SS) left after self-processing at TEVD193; One protomer (LS-L plus SS); two protomers form the dimer seen in the crystal; That the His tag sits on the small subunit is surmised from …) chain 1: AFYKREMFDPAKKYKMDHRRRGIALIFNHERFFWHLTLPERRGTCADRDNLTRRFSDLGFEVKCFNDLKAEELLLKIHEVSTVSHADADCFVCVFLSHGEGNHIYAYDAKIEIQTLTGLFKGDKCHSLVGKPKIFIIQACRGNQHDVPVIPLDVVDNQTEKLDTNITEVD chain 2: AASVYTLPAGADFLMCYSVAEGYYSHRETVNGSWYIQDLCEMLGKYGSSLEFTELLTLVNRKVSQRRVDFCKDPSAIGKKQVPCFASMLTKKLHFFPKSN | – | – | – | – | – | binding result [3]: binds
Casp6 small subunit (SS) from self-processed Casp6 (domain or fragment, human, UniProt P55212 194-293, looked up, human Caspase-6, small subunit (SS) left after self-processing at TEVD193; That the His tag sits on this chain is surmised from the plasmid's name; source: E. coli BL21(DE3)pLysS, self-processed from full-length Casp6 variant, purified) AASVYTLPAGADFLMCYSVAEGYYSHRETVNGSWYIQDLCEMLGKYGSSLEFTELLTLVNRKVSQRRVDFCKDPSAIGKKQVPCFASMLTKKLHFFPKSN | – | – | – | – | – | binding result [4]: binds
Casp6-A109T: recombinant rare natural human Casp6 missense variant A109T (protein, left off: His (from the plasmid name pET23b-Casp6-His), end not stated, state not stated) chain 1: AFYKREMFDPAEKYKMDHRRRGIALIFNHERFFWHLTLPERRGTCADRDNLTRRFSDLGFEVKCFNDLKAEELLLKIHEVSTVSHTDADCFVCVFLSHGEGNHIYAYDAKIEIQTLTGLFKGDKCHSLVGKPKIFIIQACRGNQHDVPVIPLDVVDNQTEKLDTNITEVD chain 2: AASVYTLPAGADFLMCYSVAEGYYSHRETVNGSWYIQDLCEMLGKYGSSLEFTELLTLVNRKVSQRRVDFCKDPSAIGKKQVPCFASMLTKKLHFFPKSN | – | – | – | 34.5 ± 1.8 | 2.51 ± 0.16 | –
